This note sets out measurements from patent EP0970046B1, “N-HYDROXY-2-(ALKYL, ARYL, OR HETEROARYL SULFANYL, SULFINYL OR SULFONYL)-3-SUBSTITUTED ALKYL, ARYL OR HETEROARYLAMIDES AS MATRIX METALLOPROTEINASE INHIBITORS” (Wyeth Holdings Corporation, priority 1997, dated 1998).

Counter-ions that a name gives are not always drawn. Like-named read-outs stand apart in the source and are kept apart here.

Common to all, as to assay type: biochemical
One assay has as its target T1, MMP 9 (Homo sapiens, UniProt P14780).
T1 construct: from tissue; host or cells: human neutrophils
Description: In Vitro Gelatinase Assay. The note with it: human neutrophil gelatinase B; for IC50: read-out: MMP 9 IC 50; for inhibition at 1 µM: read-out: MMP 9 % inhibition at 1 micromolar, 1 micromolar. As for the experimental part:
The assay is based on the cleavage of the thiopeptide substrate ((Ac-Pro-Leu-Gly(2 mercapto-4 methyl-pentanoyl)-Leu-Gly-OEt), Bachem Bioscience) by the enzyme, gelatinase, releasing the substrate product which reacts colorimetrically with DTNB ((5,5'-dithio-bis(2-nitro-benzoic acid)). The enzyme activity is measured by the rate of the color increase. The thiopeptide substrate is made up fresh as a 20 mM stock in 100% DMSO and the DTNB is dissolved in 100% DMSO as a 100 mM stock and stored in dark at room temperature. Both the substrate and DTNB are diluted together to 1 mM with substrate buffer (50 mM HEPES pH 7.5, 5 mM CaCl2) before use. […] The increase in OD405 is plotted and the slope of the line is calculated which represents the reaction rate. The linearity of the reaction rate is confirmed (r^2 >0.85). The mean (x ± sem) of the control rate is calculated and compared for statistical significance (p <0.05) with drug-treated rates using Dunnett's multiple comparison test.

For the next assay, the target named is MMP 13 (Homo sapiens, UniProt P45452). The experiment in a line: MMP 13 inhibition (IC50 / manual assay; method not described). The note with it: for IC50: read-out: MMP 13 IC 50.
A further assay has as its target T2, TACE (Homo sapiens, UniProt P78536).
T2 construct: purchased Immunex
Description: Procedure for Measuring TACE Inhibition. The conditions noted are these: for inhibition at 1 µM: read-out: TACE % inhibition at 1 micromolar. The essentials:
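Single-concentration screen: test compound at 1 µM final, 10-min room-temperature preincubation with 1 µg/mL protease in Tris pH 7.4 buffer containing glycerol. Initial rate from linear fluorescence increase (340/420 nm) over 10 min after adding 100 µM peptidyl substrate; significance versus control rate by Dunnett's test.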

Another assay deals with T3, MMP 1 (Homo sapiens, UniProt P03956).
T3 construct: human recombinant fibroblast collagenase (truncated, mw= 18,828, WAR, Radnor)
T3 sequence (P03956 100-269 limits assumed): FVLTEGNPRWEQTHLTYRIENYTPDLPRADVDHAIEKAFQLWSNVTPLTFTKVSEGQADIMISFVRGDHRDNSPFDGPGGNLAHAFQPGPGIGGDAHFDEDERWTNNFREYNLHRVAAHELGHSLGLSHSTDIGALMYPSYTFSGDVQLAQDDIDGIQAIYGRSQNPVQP
Description: In Vitro Collagenase Assay. The conditions noted are these: human recombinant fibroblast collagenase; for IC50: read-out: MMP 1 IC 50. Here is the method:
The assay is based on the cleavage of a peptide substrate ((Dnp-Pro-Cha-Gly-Cys(Me)-His-Ala-Lys(NMa)-NH2), Peptide International, Inc.) by collagenase releasing the fluorescent NMa group which is quantitated on the fluorometer. Dnp quenches the NMa fluorescence in the intact substrate. […] Substrate is dissolved in methanol and stored frozen in 1 mM aliquots. […] For the assay, substrate is dissolved in HCBC buffer to a final concentration of 10 µM and collagenase to a final concentration of 5 nM. Compounds are dissolved in methanol, DMSO, or HCBC. The methanol and DMSO are diluted in HCBC to < 1.0%. Compounds are added to the 96 well plate containing enzyme and the reaction is started by the addition of substrate.
The slope of the line is calculated and represents the reaction rate.
The linearity of the reaction rate is confirmed (r^2 >0.85). The mean (x ± sem) of the control rate is calculated and compared for statistical significance (p <0.05) with drug-treated rates using Dunnett's multiple comparison test.

T2 sequence (P78536 215-824): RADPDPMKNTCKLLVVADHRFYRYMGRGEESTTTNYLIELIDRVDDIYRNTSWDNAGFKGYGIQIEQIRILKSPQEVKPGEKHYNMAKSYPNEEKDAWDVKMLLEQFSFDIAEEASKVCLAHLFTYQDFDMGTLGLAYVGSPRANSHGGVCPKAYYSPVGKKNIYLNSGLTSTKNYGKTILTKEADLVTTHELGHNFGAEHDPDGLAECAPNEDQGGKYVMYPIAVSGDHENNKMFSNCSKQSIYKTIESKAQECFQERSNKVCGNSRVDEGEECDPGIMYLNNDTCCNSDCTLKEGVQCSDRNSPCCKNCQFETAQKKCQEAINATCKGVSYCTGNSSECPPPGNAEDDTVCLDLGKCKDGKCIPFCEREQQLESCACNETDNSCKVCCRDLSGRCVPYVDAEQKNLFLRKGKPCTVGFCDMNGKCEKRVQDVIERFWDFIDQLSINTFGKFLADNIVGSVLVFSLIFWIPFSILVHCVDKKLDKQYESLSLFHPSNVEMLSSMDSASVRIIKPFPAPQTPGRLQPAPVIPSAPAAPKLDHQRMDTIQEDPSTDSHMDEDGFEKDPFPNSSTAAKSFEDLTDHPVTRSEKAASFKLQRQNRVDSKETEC
T1 sequence (P14780 94-707): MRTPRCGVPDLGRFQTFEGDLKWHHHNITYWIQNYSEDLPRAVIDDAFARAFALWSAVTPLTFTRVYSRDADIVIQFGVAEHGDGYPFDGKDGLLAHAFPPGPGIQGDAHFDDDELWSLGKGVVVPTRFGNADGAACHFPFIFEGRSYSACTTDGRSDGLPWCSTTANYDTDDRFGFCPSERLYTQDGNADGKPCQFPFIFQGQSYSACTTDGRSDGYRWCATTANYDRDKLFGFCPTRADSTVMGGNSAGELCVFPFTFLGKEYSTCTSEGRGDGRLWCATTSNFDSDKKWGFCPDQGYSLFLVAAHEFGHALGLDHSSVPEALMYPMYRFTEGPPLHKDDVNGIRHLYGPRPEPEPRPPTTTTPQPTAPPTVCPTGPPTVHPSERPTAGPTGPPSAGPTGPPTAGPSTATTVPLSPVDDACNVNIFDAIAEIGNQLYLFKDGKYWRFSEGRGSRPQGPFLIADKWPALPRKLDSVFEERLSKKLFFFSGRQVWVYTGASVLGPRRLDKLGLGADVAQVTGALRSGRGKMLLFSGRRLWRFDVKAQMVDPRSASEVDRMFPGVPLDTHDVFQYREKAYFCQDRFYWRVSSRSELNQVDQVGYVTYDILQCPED

`COc1ccc(SC(C)(Cc2ccccc2)C(=O)NO)cc1` (stereo not drawn) [Example 1, N-Hydroxy-2-(4-methoxy-phenylsulfanyl)-2-methyl-3-phenyl-propionamide]: the results for the IC50 on MMP 9 and at MMP 13 were 0.56 µM and 0.193 µM, respectively. In addition, the inhibition at 1 µM on TACE worked out at 31.6%.

Consider `COc1ccc(SC(C(=O)NO)c2ccccc2)cc1` (stereo not drawn) [Example 2, N-Hydroxy-2-(4-methoxy-phenylsulfanyl)-2-phenyl-acetamide], for which the inhibition at 1 µM was 10.5% at MMP 9 and 0% on MMP 13 (read-out: MMP 13 % inhibition at 1 micromolar). Besides, the IC50 on TACE (read-out: TACE IC 50) was 0.403 µM.

On to `COc1ccc(SC(C)(CC=C(C)C)C(=O)NO)cc1` (stereo not drawn) [Example 3, 2-(4-Methoxy-phenylsulfanyl)-2,5-dimethyl-hex-4-enoic acid hydroxyamide], for which the IC50 turned out to be 0.309 µM on MMP 9 and 0.169 µM at MMP 13. For the same molecule, on TACE, the inhibition at 1 µM was found to be 27.4%.

Regarding `COc1ccc([S+]([O-])C(C)(Cc2ccccc2)C(=O)NO)cc1` (stereo not drawn) [Example 5, N-Hydroxy-2-(4-methoxy-benzenesulfinyl)-2-methyl-3-phenyl-propionamide], the IC50 at MMP 9 came out at 0.0077 µM; at MMP 13 it was 0.0047 µM. Moreover, the inhibition at 1 µM on TACE turned out to be 25%.

For `COc1ccc(S(=O)(=O)C(C)(Cc2ccc(-c3ccccc3)cc2)C(=O)NO)cc1` (stereo not drawn) [Example 14, 3-(Biphenyl-4-yl)-N-hydroxy-2-(4-methoxy-benzenesulfonyl)-2-methyl-propionamide], the IC50 on MMP 9 came to 0.023 µM; on MMP 1, 0.158 µM. Also, on TACE, the inhibition at 1 µM stood at 17.2%.

Take `COc1ccc(S(=O)(=O)C(C)(Cc2ccc(OCCN3CCCCC3)cc2)C(=O)NO)cc1` (stereo not drawn) [Example 17, N-Hydroxy-2-(4-methoxy-benzenesulfonyl)-2-methyl-3-[4-(2-piperidin-1-yl-ethoxy)-phenyl]-propionamide]: the IC50 on MMP 9 turned out to be 0.0089 µM; at MMP 1 it was 0.239 µM. Further, the inhibition at 1 µM on TACE is 41%.

On to `COc1ccc(S(=O)(=O)C(C)(Cc2ccc(OCCN3CCCCCC3)cc2)C(=O)NO)cc1` (stereo not drawn) [Example 18, 2-[4-(2-Azepan-1-yl-ethoxy)-benzyl]-2-(4-methoxy-benzenesulfonyl)-propionic acid hydroxyamide], for which the results for the IC50 on MMP 9 and at MMP 1 were 0.0189 µM and 0.54 µM, respectively. For the same molecule, the inhibition at 1 µM on TACE is 29.2%.

As to `CCOc1ccc(S(=O)(=O)C(C)(Cc2ccc(OCCN(CC)CC)cc2)C(=O)NO)cc1` (stereo not drawn) [Example 25, N-Hydroxy-2-(4-ethoxy-benzenesulfonyl)-2-methyl-3-[4-(2-N,N-diethylamino-ethoxy)-phenyl]-propionamide], the IC50 on MMP 9 stood at 0.0267 µM; at MMP 13, 0.008 µM.

Consider `CCCCOc1ccc(S(=O)(=O)C(C)(Cc2ccc(OCCN3CCCCC3)cc2)C(=O)NO)cc1` (stereo not drawn) [Example 28, N-Hydroxy-2-(4-n-butoxy-benzenesulfonyl)-2-methyl-3-[4-(2-piperidin-1-yl-ethoxy)-phenyl]-propionamide], for which the IC50 at MMP 13 amounted to 0.002 µM. The inhibition at 1 µM at TACE came out at 30.6%.

On to `CC(C)=CCC(CC=C(C)C)(C(=O)NO)S(=O)(=O)c1ccc(C)cc1` [Example 42, 5-Methyl-2-(3-methyl-but-2-enyl)-2-(toluene-4-sulfonyl)-hex-4-enoic acid hydroxyamide], for which the IC50 on MMP 9 came to 0.0509 µM; on MMP 13 it was 0.0062 µM.

Take `CC(Cc1ccc(OCCN2CCCCC2)cc1)(C(=O)NO)S(=O)(=O)c1cccs1` (stereo not drawn) [Example 45]: the inhibition at 1 µM at MMP 9 worked out at 48.6%; at TACE, 20.4%; on MMP 1 (read-out: MMP 1 % inhibition at 1 micromolar, 1 micromolar), 49%.

Turning to `COc1ccc(S(=O)(=O)C(CCCCOc2ccccc2)(Cc2cccnc2)C(=O)NO)cc1` (stereo not drawn) [Example 68, 2-(4-Methoxy-benzenesulfonyl)-6-phenoxy-2-pyridin-3-ylmethyl-hexanoic acid hydroxyamide], the IC50 turned out to be 0.029 µM on MMP 9, 0.027 µM at MMP 13 and 0.522 µM on TACE (read-out: TACE IC 50).

Regarding `CC#CCC(Cc1cccnc1)(C(=O)NO)S(=O)(=O)c1ccc(F)cc1` (stereo not drawn) [Example 76, 2-(4-Fluoro-benzenesulfonyl)-2-pyridin-3-ylmethyl-hex-4-ynoic acid hydroxyamide], the IC50 on MMP 13 is 0.5 µM; at MMP 1 it was 0.805 µM.

For the molecule `CCCCCC#CCC(Cc1cccnc1)(C(=O)NO)S(=O)(=O)c1ccc(F)cc1` (stereo not drawn) [Example 77, 2-(4-Fluoro-benzenesulfonyl)-2-pyridin-3-ylmethyl-dec-4-ynoic acid hydroxyamide], the IC50 turned out to be 0.17 µM on MMP 13 and 0.206 µM at MMP 1.

In the case of `CC#CCC(CC#CC)(C(=O)NO)S(=O)(=O)c1ccc(F)cc1` [Example 78, 2-(4-Fluoro-benzenesulfonyl)-2-but-2-ynyl-hex-4-ynoic acid hydroxyamide], the IC50 on MMP 9 was found to be 0.56 µM; at MMP 13 it was 0.034 µM. Further, the inhibition at 1 µM on TACE amounted to 24.6%.

In the case of `COc1ccc(S(=O)(=O)C(CC=C(C)C)(CC=C(C)C)C(=O)NO)cc1` [Example 79, 2-(4-Methoxy-benzenesulfonyl)-5-methyl-2-(3-methyl-but-2-enyl)-hex-4-enoic acid hydroxyamide], the IC50 on MMP 9 stood at 0.00054 µM; on TACE (read-out: TACE IC 50), 0.805 µM; at MMP 1, 0.025 µM.

In the case of `COc1ccc(S(=O)(=O)C(C)(Cc2ccc(OCCN3CCOCC3)cc2)C(=O)NO)cc1` (stereo not drawn) [Example 82, 2-(4-methoxy-benzenesulfonyl)-2-methyl-3-[4-(2-morpholin-4-yl-ethoxy)-phenyl]-propionic hydroxyamide hydrochloride], the IC50 at MMP 9 came to 0.0194 µM; on MMP 1, 0.238 µM. Besides, at TACE, the inhibition at 1 µM stood at 34.5%.

In the case of `COc1ccc(S(=O)(=O)C2(C(=O)NO)CCN(CCCc3ccccc3)CC2)cc1` [Example 91, 4-(4-methoxy-benzenesulfonyl)-1-(3-phenyl-propyl)-piperidine-4-carboxylic acid hydroxyamide], the IC50 at MMP 9 came to 0.0133 µM; on TACE (read-out: TACE IC 50), 0.503 µM; on MMP 1, 1.93 µM.

Regarding `COc1ccc(S(=O)(=O)C2(C(=O)NO)CCN(C3CCCCCCC3)CC2)cc1` [Example 94, 1-Cyclooctyl-4-(4-methoxy-benzenesulfonyl)-piperidine-4-carboxylic acid hydroxyamide], the values for the IC50 at MMP 9 and at MMP 1 were 0.138 µM and 2.64 µM, respectively.

On to `CCCCOc1ccc(S(=O)(=O)C2(C(=O)NO)CCN(Cc3ccccc3)CC2)cc1` [Example 98, 1-Benzyl-4-(4-butoxy-benzenesulfonyl)-piperidine-4-carboxylic acid hydroxyamide], for which the IC50 at MMP 13 came out at 0.0012 µM.

Turning to `COc1ccc(S(=O)(=O)C2(C(=O)NO)CCN(CCc3ccccc3)CC2)cc1` [Example 103, 4-(4-methoxy-benzenesulfonyl)-1-(2-phenyl-ethyl)-piperidine-4-carboxylic acid hydroxyamide], the IC50 at MMP 9 was 0.0451 µM; at MMP 13, 0.0088 µM; on TACE, 0.47 µM.

`CCCCOc1ccc(S(=O)(=O)C2(C(=O)NO)CCN(Cc3ccc(OC)cc3)CC2)cc1` [Example 104, 4-(4-n-Butoxy-benzenesulfonyl)-1-(4-methoxy-benzyl)-piperidine-4-carboxylic acid hydroxyamide]: the IC50 is 0.0014 µM on MMP 13 and 0.208 µM at TACE (read-out: TACE IC 50).

Take `CCCCOc1ccc(S(=O)(=O)C2(C(=O)NO)CCN(CCCOc3ccccc3)CC2)cc1` [Example 106, 4-(4-n-Butoxy-benzenesulfonyl)-1-(3-phenoxy-propyl)-piperidine-4-carboxylic acid hydroxyamide]: the IC50 on MMP 9 was 0.0051 µM; at TACE (read-out: TACE IC 50) it was 0.631 µM; at MMP 1 it was 3.79 µM.

With `CCCCOc1ccc(S(=O)(=O)C2(C(=O)NO)CCN(CCOc3ccccc3)CC2)cc1` [Example 108, 4-(4-n-Butoxy-benzenesulfonyl)-1-(2-phenoxy-ethyl)-piperidine-4-carboxylic acid hydroxyamide], the IC50 at MMP 9 stood at 0.0054 µM; at TACE (read-out: TACE IC 50), 0.27 µM; at MMP 1, 2.9 µM.

By inhibition is commonly meant the drop in the measured response relative to a control, in per cent.
